Source: patent publication US20260217701A1, “SELECTIVE BET INHIBITORS AND USES THEREOF” (Tay Therapeutics Limited, priority 2022, published 2026)

How the values were obtained:
BRD4 BD1 = molecular target: T1, BRD4 BD1 (Homo sapiens, UniProt O60885); experiment: NanoBRET bromodomain assay, NanoLuc-BRD4-BD1 in HEK293 cells; type: binding
T1 construct: HEK293 cells were transfected using NanoLuc-BRD4-BD1 or NanoLuc-BRD4-BD2 fusion vectors
Method: Exemplary compounds of the disclosure are active against BRD4 BD2 and selective over BRD4 BD1. BRD4 is a representative example of the BET family, as the binding sites of all BET family members are structurally similar. […] IC50s and fold selectivity's are determined as described below and are represented in Table 1.
(§1) Plates were then incubated at 37° C.+5% CO2 incubator for 2 hours.
(§2) Fold Selectivity Calculated (IC50 BD1/IC50 BD2).

BRD4 BD2 = molecular target: T2, BRD4 BD2 (Homo sapiens, UniProt O60885); experiment: NanoBRET bromodomain assay, NanoLuc-BRD4-BD2 in HEK293 cells; type: binding; conditions: for Fold Selectivity BRD4 BD1/BD2: IC50 BD1/IC50 BD2, qualitative if an IC50 is at the upper limit
T2 construct: HEK293 cells were transfected using NanoLuc-BRD4-BD1 or NanoLuc-BRD4-BD2 fusion vectors
Method: as §1, §2

Compound	IC50 (BRD4 BD1)	IC50 (BRD4 BD2)	Fold Selectivity BRD4 BD1/BD2 (BRD4 BD2)
Cc1cccc(C)c1Oc1cn(C)c(=O)cc1-c1cn(C)c(=O)c2[nH]c(-c3cnn(C(F)F)c3)cc12 [Example 12, 2-(1-(difluoromethyl)-1H-pyrazol-4-yl)-4-(5-(2,6-dimethylphenoxy)-1-methyl-2-oxo-1,2-dihydropyridin-4-yl)-6-methyl-1,6-dihydro-7H-pyrrolo[2,3-c]pyridin-7-one]	> 1 µM	0.01 to 0.05 µM	xxx (Fold >200 and ≤1000)
Cc1cccc(C)c1Oc1cn(C)c(=O)cc1-c1cn(C)c(=O)c2[nH]c(-c3cnn(CC(F)(F)F)c3)cc12 [Example 13, 4-(5-(2,6-dimethylphenoxy)-1-methyl-2-oxo-1,2-dihydropyridin-4-yl)-6-methyl-2-(1-(2,2,2-trifluoroethyl)-1H-pyrazol-4-yl)-1,6-dihydro-7H-pyrrolo[2,3-c]pyridin-7-one]	> 1 µM	0.01 to 0.05 µM	xxx (Fold >200 and ≤1000)
Cc1cccc(C)c1Oc1cn(C)c(=O)cc1-c1cn(C)c(=O)c2[nH]c(-c3cnn(CCF)c3)cc12 [Example 14, 4-(5-(2,6-dimethylphenoxy)-1-methyl-2-oxo-1,2-dihydropyridin-4-yl)-2-(1-(2-fluoroethyl)-1H-pyrazol-4-yl)-6-methyl-1,6-dihydro-7H-pyrrolo[2,3-c]pyridin-7-one]	0.05 to 0.5 µM	< 0.01 µM	x (Fold >2 and ≤50)
Cc1cccc(C)c1Oc1cn(C)c(=O)cc1-c1cn(C)c(=O)c2[nH]c(-c3cn(CC(F)(F)F)nc3C)cc12 [Example 15, 4-(5-(2,6-dimethylphenoxy)-1-methyl-2-oxo-1,2-dihydropyridin-4-yl)-6-methyl-2-(3-methyl-1-(2,2,2-trifluoroethyl)-1H-pyrazol-4-yl)-1,6-dihydro-7H-pyrrolo[2,3-c]pyridin-7-one]	0.5 to 1 µM	0.01 to 0.05 µM	xx (Fold >50 and ≤200)
Cc1cccc(C)c1Oc1cn(C)c(=O)cc1-c1cn(C)c(=O)c2[nH]c(-c3cnn(CC(F)(F)F)c3C)cc12 [Example 16, 4-(5-(2,6-dimethylphenoxy)-1-methyl-2-oxo-1,2-dihydropyridin-4-yl)-6-methyl-2-(5-methyl-1-(2,2,2-trifluoroethyl)-1H-pyrazol-4-yl)-1,6-dihydro-7H-pyrrolo[2,3-c]pyridin-7-one]	> 1 µM	< 0.01 µM	xx (Fold >50 and ≤200)
Cn1cc(-c2cccc(COC(F)(F)F)c2)c(-c2cn(C)c(=O)c3[nH]c(-c4cnn(C(F)(F)F)c4)cc23)cc1=O [Example 17, 6-methyl-4-(1-methyl-2-oxo-5-(3-((trifluoromethoxy)methyl)phenyl)-1,2-dihydropyridin-4-yl)-2-(1-(trifluoromethyl)-1H-pyrazol-4-yl)-1,6-dihydro-7H-pyrrolo[2,3-c]pyridin-7-one]	> 1 µM	< 0.01 µM	xxxx (Fold >1000)
Cn1cc(-c2ccc(COC(F)(F)F)cc2)c(-c2cn(C)c(=O)c3[nH]c(-c4cnn(C(F)(F)F)c4)cc23)cc1=O [Example 18, 6-methyl-4-(1-methyl-2-oxo-5-(4-((trifluoromethoxy)methyl)phenyl)-1,2-dihydropyridin-4-yl)-2-(1-(trifluoromethyl)-1H-pyrazol-4-yl)-1,6-dihydro-7H-pyrrolo[2,3-c]pyridin-7-one]	> 1 µM	< 0.01 µM	xxxx (Fold >1000)
CCn1cc(-c2cc(=O)n(C)cc2-c2ccccc2)c2cc(-c3cnn(C(F)(F)F)c3)[nH]c2c1=O [Example 19, 6-ethyl-4-(1-methyl-2-oxo-5-phenyl-1,2-dihydropyridin-4-yl)-2-(1-(trifluoromethyl)-1H-pyrazol-4-yl)-1,6-dihydro-7H-pyrrolo[2,3-c]pyridin-7-one]	> 1 µM	< 0.01 µM	xxxx (Fold >1000)
Cc1c(-c2cnn(C(F)(F)F)c2)[nH]c2c(=O)n(C)cc(-c3cc(=O)n(C)cc3-c3ccccc3)c12 [Example 20, 3,6-dimethyl-4-(1-methyl-2-oxo-5-phenyl-1,2-dihydropyridin-4-yl)-2-(1-(trifluoromethyl)-1H-pyrazol-4-yl)-1,6-dihydro-7H-pyrrolo[2,3-c]pyridin-7-one]	> 1 µM	0.01 to 0.05 µM	xxx (Fold >200 and ≤1000)
Cn1cc(-c2ccccc2)c(-c2cn(C)c(=O)c3[nH]c(-c4cnn(C(F)(F)F)c4)c(F)c23)cc1=O [Example 21, 3-fluoro-6-methyl-4-(1-methyl-2-oxo-5-phenyl-1,2-dihydropyridin-4-yl)-2-(1-(trifluoromethyl)-1H-pyrazol-4-yl)-1,6-dihydro-7H-pyrrolo[2,3-c]pyridin-7-one]	> 1 µM	< 0.01 µM	xxxx (Fold >1000)
Cn1cc(-c2cc(=O)n(CCOC(F)F)cc2-c2ccccc2)c2cc(-c3cnn(C(F)(F)F)c3)[nH]c2c1=O [Example 22, 4-(1-(2-(difluoromethoxy)ethyl)-2-oxo-5-phenyl-1,2-dihydropyridin-4-yl)-6-methyl-2-(1-(trifluoromethyl)-1H-pyrazol-4-yl)-1,6-dihydro-7H-pyrrolo[2,3-c]pyridin-7-one]	> 1 µM	< 0.01 µM	xxxx (Fold >1000)
CSCCn1cc(-c2ccccc2)c(-c2cn(C)c(=O)c3[nH]c(-c4cnn(C(F)(F)F)c4)cc23)cc1=O [Example 23, 6-methyl-4-(1-(2-(methylthio)ethyl)-2-oxo-5-phenyl-1,2-dihydropyridin-4-yl)-2-(1-(trifluoromethyl)-1H-pyrazol-4-yl)-1,6-dihydro-7H-pyrrolo[2,3-c]pyridin-7-one]	> 1 µM	< 0.01 µM	xxxx (Fold >1000)
CSCc1ccc(-c2cn(C)c(=O)cc2-c2cn(C)c(=O)c3[nH]c(-c4cnn(C(F)(F)F)c4)cc23)cc1 [Example 24, 6-methyl-4-(1-methyl-5-(4-((methylthio)methyl)phenyl)-2-oxo-1,2-dihydropyridin-4-yl)-2-(1-(trifluoromethyl)-1H-pyrazol-4-yl)-1,6-dihydro-7H-pyrrolo[2,3-c]pyridin-7-one]	> 1 µM	< 0.01 µM	xxxx (Fold >1000)

Next, values leading:

IC50 (BRD4 BD1)	IC50 (BRD4 BD2)	Fold Selectivity BRD4 BD1/BD2 (BRD4 BD2)	Compound
> 1 µM	< 0.01 µM	xxxx (Fold >1000)	CSCc1cccc(-c2cn(C)c(=O)cc2-c2cn(C)c(=O)c3[nH]c(-c4cnn(C(F)(F)F)c4)cc23)c1 [Example 25, 6-methyl-4-(1-methyl-5-(3-((methylthio)methyl)phenyl)-2-oxo-1,2-dihydropyridin-4-yl)-2-(1-(trifluoromethyl)-1H-pyrazol-4-yl)-1,6-dihydro-7H-pyrrolo[2,3-c]pyridin-7-one]
0.5 to 1 µM	< 0.01 µM	xxx (Fold >200 and ≤1000)	Cc1cc(-c2cc3c(-c4cc(=O)n(C)cc4-c4ccccc4F)cn(C)c(=O)c3[nH]2)cc(C)n1.Cl [Example 26, 2-(2,6-dimethylpyridin-4-yl)-4-(5-(2-fluorophenyl)-1-methyl-2-oxo-1,2-dihydropyridin-4-yl)-6-methyl-1,6-dihydro-7H-pyrrolo[2,3-c]pyridin-7-one hydrogen chloride]
> 1 µM	0.01 to 0.05 µM	xxx (Fold >200 and ≤1000)	Cc1cc(-c2cc3c(-c4cc(=O)n(C)cc4-c4ccccc4C)cn(C)c(=O)c3[nH]2)cc(C)n1.Cl [Example 27, 2-(2,6-dimethylpyridin-4-yl)-6-methyl-4-(1-methyl-2-oxo-5-(o-tolyl)-1,2-dihydropyridin-4-yl)-1,6-dihydro-7H-pyrrolo[2,3-c]pyridin-7-one hydrochloride]
> 1 µM	< 0.01 µM	xxxx (Fold >1000)	Cc1cc(-c2cc3c(-c4cc(=O)n(C5CC5)cc4-c4ccccc4)cn(C)c(=O)c3[nH]2)cc(C)n1.Cl [Example 28, 4-(1-cyclopropyl-2-oxo-5-phenyl-1,2-dihydropyridin-4-yl)-2-(2,6-dimethylpyridin-4-yl)-6-methyl-1,6-dihydro-7H-pyrrolo[2,3-c]pyridin-7-one hydrogen chloride]
> 1 µM	0.01 to 0.05 µM	xxx (Fold >200 and ≤1000)	Cc1cc(-c2cc3c(-c4cc(=O)n(C)cc4-c4ccc(C#N)cc4)cn(C)c(=O)c3[nH]2)cc(C)n1.Cl [Example 29, 4-(4-(2-(2,6-dimethylpyridin-4-yl)-6-methyl-7-oxo-6,7-dihydro-1H-pyrrolo[2,3-c]pyridin-4-yl)-1-methyl-6-oxo-1,6-dihydropyridin-3-yl)benzonitrile hydrogen chloride]
> 1 µM	< 0.01 µM	xxxx (Fold >1000)	Cc1cc(-c2cc3c(-c4cc(=O)n(C)cc4-c4ccc(F)cc4)cn(C)c(=O)c3[nH]2)cc(C)n1.Cl [Example 30, 2-(2,6-dimethylpyridin-4-yl)-4-(5-(4-fluorophenyl)-1-methyl-2-oxo-1,2-dihydropyridin-4-yl)-6-methyl-1,6-dihydro-7H-pyrrolo[2,3-c]pyridin-7-one hydrochloride]
0.5 to 1 µM	< 0.01 µM	xxx (Fold >200 and ≤1000)	COc1ccc(-c2cn(C)c(=O)cc2-c2cn(C)c(=O)c3[nH]c(-c4cc(C)nc(C)c4)cc23)cc1.Cl [Example 31, 2-(2,6-dimethylpyridin-4-yl)-4-(5-(4-methoxyphenyl)-1-methyl-2-ox0-1,2-dihydropyridin-4-yl)-6-methyl-1,6-dihydro-7H-pyrrolo[2,3-c]pyridin-7-one hydrogen chloride]
